Columns and labels:
[1] = target: Geranylgeranyl transferase type I (Bos taurus, UniProt P29702+Q5EAD5); assay: Inhibition of bovine Geranylgeranyltransferase; type: protein-complex assay
[2] = target: Protein farnesyltransferase (Bos taurus, UniProt P29702+P49355); assay: Inhibition of bovine farnesyltransferase; type: protein-complex assay
[3] = target: T1, Protein farnesyltransferase (Mus musculus) (UniProt Q61239+Q8K2I1); assay: Percent inhibition of H-Ras transformed NIH-3T3-cell proliferation at 100 nM; type: functional, cell-based; settings: NIH3T3
[4] = target: Protein farnesyltransferase (Mus musculus, UniProt Q61239+Q8K2I1); assay: (§1) Inhibition of H-Ras transformed NIH-3T3-cell proliferation; type: functional, cell-based; settings: nih3t3
[5] = target: T1, Protein farnesyltransferase (Mus musculus); assay: as §1; type: functional; settings: concentration not given here

| IC50 [1] | IC50 [2] | inhibition [3] | EC50 [4] | inhibition [5] | SMILES |
| --- | --- | --- | --- | --- | --- |
| > 10000 nM | 3 nM | – | – | – | N#Cc1ccc(COCc2cncn2Cc2ccc(C#N)nc2)c(-c2ccc3c(c2)OCO3)c1 |
| > 10000 nM | 0.6 nM | 53% | – | – | Cc1ccc(-c2cc(C#N)ccc2COCc2cncn2Cc2ccc(C#N)cc2)cc1C |
| 5500 nM | 4.7 nM | – | – | – | N#Cc1ccc(Cn2cncc2COCc2ccc(C#N)cc2-c2ccc3c(c2)OCO3)nc1 |
| > 10000 nM | 8.3 nM | 11% | – | – | N#Cc1ccc(COCc2cncn2Cc2ccc(Cl)cc2)c(-c2ccc3c(c2)OCO3)c1 |
| > 10000 nM | 3 nM | 43% | – | – | N#Cc1ccc(COCc2cncn2Cc2ccc(C#N)nc2)c(-c2cccc(Cl)c2)c1 |
| 220 nM | 0.65 nM | 5% | – | – | N#Cc1ccc(Cn2cncc2CNCc2ccc(C#N)c(-c3cccc4ccccc34)c2)cc1 |
| 730 nM | 0.37 nM | 10% | – | – | N#Cc1ccc(Cn2cncc2COCc2ccc(C#N)cc2-c2ccc(Cl)c(Cl)c2)cc1 |
| 2300 nM | 1.3 nM | 43% | – | – | N#Cc1ccc(Cn2cncc2COCc2ccc(C#N)cc2-c2cccc3ccccc23)cc1 |
| 240 nM | 0.38 nM | – | – | – | N#Cc1ccc(Cn2cncc2COc2ccc(C#N)c(-c3cccc4ccccc34)c2)cc1 |
| – | > 1000 nM | – | – | – | CC1=C(Br)C=C(C#N)C(=O)C1Cn1cncc1COCc1ccc(C#N)cc1-c1ccc2c(c1)OCO2 (stereo unspecified) |
| – | 13 nM | 92% | – | – | CC(=O)Nc1cccc(-c2cc(C#N)ccc2COCc2cncn2Cc2ccc(C#N)cc2)c1 |
| 810 nM | 4.3 nM | 26% | – | – | N#Cc1ccc(Cn2cncc2COCc2cnc(C#N)cc2-c2cccc(Cl)c2)cc1 |
| 1300 nM | 0.65 nM | – | 52 nM | – | N#Cc1ccc(Cn2cncc2COCc2ccc(C#N)cc2-c2ccc(OC(F)(F)F)cc2)cc1 |
| > 10000 nM | 4.4 nM | 49% | – | – | COc1cccc(-c2cc(C#N)ccc2COCc2cncn2Cc2ccc(C#N)cn2)c1 |
| 8600 nM | 4.3 nM | – | – | – | N#Cc1ccc(Cn2cncc2COCc2ccc(C#N)cc2-c2ccc(C(F)(F)F)cc2)cc1 |
| 2300 nM | 1.2 nM | 52% | – | – | CCOc1ccc(-c2cc(C#N)ccc2COCc2cncn2Cc2ccc(C#N)cc2)cc1 |
| 420 nM | 0.9 nM | – | – | – | N#Cc1ccc(OCc2cncn2Cc2ccc(C#N)c(-c3cccc4ccccc34)c2)nc1 |
| > 10000 nM | 7.6 nM | 25% | – | – | COc1ccc(-c2cc(C#N)ccc2COCc2cncn2Cc2ccc(C#N)cc2)cn1 |
| 870 nM | 0.44 nM | 49% | – | – | CC(C)(C)c1ccc(-c2cc(C#N)ccc2COCc2cncn2Cc2ccc(C#N)cc2)cc1 |

| IC50 [1] | IC50 [2] | inhibition [3] | EC50 [4] | inhibition [5] | SMILES |
| --- | --- | --- | --- | --- | --- |
| 8200 nM | 0.62 nM | – | – | 30% | N#Cc1ccc(Cn2cncc2COCc2ccc(Cl)cc2-c2cccc(Cl)c2)cc1 |
| 2200 nM | 1.7 nM | – | – | – | N#Cc1ccc(Cn2cncc2COCc2ccc(C#N)cc2-c2cccc(Cl)c2)nc1 |
| 87 nM | 10 nM | 0% | – | – | N#Cc1ccc(COCc2cncn2Cc2ccc(C#N)cc2-c2cccc(Cl)c2)c(-c2cccc(Cl)c2)c1 |
| 3400 nM | 0.92 nM | 53% | – | – | N#Cc1ccc(Cn2cncc2COCc2ccc(C#N)cc2-c2ccc3ccccc3c2)cc1 |
| > 10000 nM | 1.5 nM | 35% | – | – | COc1cccc(-c2cc(C#N)ccc2COCc2cncn2Cc2ccc(C#N)nc2)c1 |
| 565 nM | 0.32 nM | 49% | – | – | N#Cc1ccc(OCc2cncn2Cc2ccc(C#N)c(-c3cccc4ccccc34)c2)cc1 |
| 1800 nM | 4 nM | 0% | – | – | N#Cc1ccc(Cn2cncc2COc2ccc(Cl)cc2-c2cccc(Cl)c2)cc1 |
| 6800 nM | 0.37 nM | – | 7.7 nM | – | N#Cc1ccc(Cn2cncc2COCc2ccc(C#N)cc2-c2cccc(Cl)c2)cc1 |
| > 10000 nM | 1.3 nM | – | – | – | CC(=O)c1ccc(-c2cc(C#N)ccc2COCc2cncn2Cc2ccc(C#N)cc2)cc1 |
| 2100 nM | 0.96 nM | – | – | – | N#Cc1ccc(COCc2cncn2Cc2ccc(C#N)cc2-c2cccc3ccccc23)cc1 |
| – | 96 nM | – | – | – | CS(=O)(=O)c1ccc(Cn2cncc2COCc2ccc(C#N)cc2-c2cccc(Cl)c2)cc1 |
| 1400 nM | 6.8 nM | 0% | – | – | N#Cc1ccc(COCc2cncn2Cc2ccc(C#N)cc2-c2cccc3ccccc23)c(-c2ccc3c(c2)OCO3)c1 |
| – | 0.81 nM | 54% | – | – | N#Cc1ccc(Cn2cncc2COCc2ccc(C#N)cc2-c2cccc3c2OCO3)cc1 |
| > 10000 nM | 2.2 nM | 0% | – | – | COc1cccc(-c2cc(C#N)ccc2COCc2cncn2Cc2ccc(Cl)cc2)c1 |
| > 10000 nM | 0.58 nM | – | – | – | CCOc1cccc(-c2cc(C#N)ccc2COCc2cncn2Cc2ccc(C#N)nc2)c1 |
| > 10000 nM | 1.4 nM | – | – | – | CCOc1cccc(-c2cc(C#N)ccc2COCc2cncn2Cc2ccc(Cl)cc2)c1 |
| 1300 nM | 4.8 nM | 5% | – | – | N#Cc1ccc(Cn2cncc2COCc2ccc(C#N)c(-c3cccc4ccccc34)c2)cc1 |
| 990 nM | 0.49 nM | 54% | – | – | N#Cc1ccc(Cn2cncc2COCc2ccc(C#N)cc2-c2cccc(OC(F)(F)F)c2)cc1 |

| SMILES | IC50 [1] | IC50 [2] | inhibition [3] | EC50 [4] | inhibition [5] |
| --- | --- | --- | --- | --- | --- |
| Cn1cncc1[C@@](N)(c1ccc(Cl)cc1)c1ccc2c(c1)c(-c1cccc(Cl)c1)cc(=O)n2C [TIPIFARNIB] | 1100 nM | – | – | – | – |
